Laboratory results from patent publication US8865706B2, “Heteroaryl-substituted hexahydropyrano[3,4-d][1,3]thiazin-2-amine compounds” (Pfizer Inc., priority 2013, dated 2014).
pIC50: −log10 of the molar value.

Columns and labels:
[1] = test system: sAPPβ levels in H4 human neuroglioma cells over-expressing the wild-type human APP695; experiment: Whole Cell Assay (In Vitro sAPPb Assay); assay type: cell-based; conditions: 18 hours treatment, average of 2 determinations, values marked b: geometric mean of 3-9 determinations
Description: Whole Cell Assay (In Vitro sAPPb Assay):
H4 human neuroglioma cells over-expressing the wild-type human APP695 are treated for 18 hours with compound in a final concentration 1% DMSO. sAPPβ levels are measured using TMB-ELISA with capture APP N-terminal antibody (Affinity BioReagents, OMA1-03132), wild-type sAPPβ specific reporter p192 (Elan), and tertiary anti rabbit-HRP (GE Healthcare).

[2] = target: BACE1 enzyme (Homo sapiens (Human), UniProt P56817); experiment: BACE1 Cell-Free Assay (fluorescence polarization, cleavage of synthetic APP substrate); assay type: biochemical; conditions: average of 2 determinations; values marked b: geometric mean of 3-9 determinations
Chain of BACE1 enzyme (P56817 46-457): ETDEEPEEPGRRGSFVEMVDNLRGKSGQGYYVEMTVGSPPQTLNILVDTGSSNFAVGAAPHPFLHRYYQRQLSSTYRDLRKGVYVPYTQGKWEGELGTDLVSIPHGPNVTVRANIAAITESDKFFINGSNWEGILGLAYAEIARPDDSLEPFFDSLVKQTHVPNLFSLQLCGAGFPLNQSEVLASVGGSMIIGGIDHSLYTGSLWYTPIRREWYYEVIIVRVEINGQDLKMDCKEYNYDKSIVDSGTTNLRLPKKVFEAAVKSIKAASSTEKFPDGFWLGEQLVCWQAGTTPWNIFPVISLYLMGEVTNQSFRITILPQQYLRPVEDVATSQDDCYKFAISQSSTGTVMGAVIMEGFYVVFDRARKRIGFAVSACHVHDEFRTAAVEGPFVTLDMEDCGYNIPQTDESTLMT
Text: This assay measures the inhibition of the beta-secretase enzyme as it cleaves a non-native peptide.
A synthetic APP substrate that can be cleaved by beta-secretase having N-terminal biotin and made fluorescent by the covalent attachment of Oregon Green at the Cys residue is used to assay beta-secretase activity in the presence or absence of the inhibitory compounds. […] The BACE1 enzyme is affinity purified material from conditioned media of CHO-K1 cells that have been transfected with a soluble BACE construct (BACE1deltaTM96His). Compounds are incubated in a ½ log dose response curve from a top concentration of 100 μM with BACE1 enzyme and the biotinylated fluorescent peptide in 384-well black plates (Thermo Scientific #4318). BACE1 is at a final concentration of 0.1 nM with a final concentration of peptide substrate of 150 nM in a reaction volume of 30 μL assay buffer [100 mM sodium acetate, pH 4.5 (brought to pH with acetic acid), and 0.001% Tween-20]. Plates are covered and incubated for 3 hours at 37° C. The reaction is stopped with the addition of 30 μL of 1.5 μM Streptavidin (Pierce, #21125). After a 10 minute incubation at room temperature, plates are read on a PerkinElmer EnVision for fluorescence polarization (Ex485 nm/Em530 nm). The activity of the beta-secretase enzyme is detected by changes in the fluorescence polarization that occur when the substrate is cleaved by the enzyme.

Compound | pIC50 ([1]; Homo sapiens) | pIC50 [2] | pIC50 [1]
NC1=N[C@@]2(c3ccc(F)cc3F)CO[C@@H](c3cn4cccnc4n3)C[C@H]2CS1 [Example 4, (4aR,6R,8aS)-8a-(2,4-Difluorophenyl)-6-(imidazo[1,2-a]pyrimidin-2-yl)-4,4a,5,6,8,8a-hexahydropyrano[3,4-d][1,3]thiazin-2-amine] | 7.18 | 5.74 | 
Cc1nc([C@H]2C[C@H]3CSC(N)=N[C@@]3(c3ccc(F)cc3F)CO2)no1 [Example 6, (4aR,6R,8aS)-8a-(2,4-Difluorophenyl)-6-(5-methyl-1,2,4-oxadiazol-3-yl)-4,4a,5,6,8,8a-hexahydropyrano[3,4-d][1,3]thiazin-2-amine] | 7.38 | 6.47 | 
Cn1cc(F)c([C@H]2C[C@H]3CSC(N)=N[C@@]3(c3ccc(F)cc3F)CO2)n1 [Example 8, (4aR,6R,8aS)-8a-(2,4-difluorophenyl)-6-(4-fluoro-1-methyl-1H-pyrazol-3-yl)-4,4a,5,6,8,8a-hexahydropyrano[3,4-d][1,3]thiazin-2-amine] | 7.58 | 6.79 | 
Cc1cc([C@H]2C[C@H]3[C@@H](C)SC(N)=N[C@@]3(c3ccc(F)cc3F)CO2)on1 [Example 9, (4R,4aR,6R,8aS)-8a-(2,4-difluorophenyl)-4-methyl-6-(3-methyl-1,2-oxazol-5-yl)-4,4a,5,6,8,8a-hexahydropyrano[3,4-d][1,3]thiazin-2-amine] | 8.28 | 7.12 | 
COc1cnc([C@H]2C[C@H]3CSC(N)=N[C@@]3(c3ccc(F)cc3F)CO2)nc1 [Example 11, (4aR,6R,8aS)-8a-(2,4-Difluorophenyl)-6-(5-methoxypyrimidin-2-yl)-4,4a,5,6,8,8a-hexahydropyrano[3,4-d][1,3]thiazin-2-amine] | 7.54 | 6.46 | 
Cn1ncc([C@H]2C[C@H]3CSC(N)=N[C@@]3(c3ccc(F)cc3F)CO2)n1 [Example 12, (4aR,6R,8aS)-8a-(2,4-Difluorophenyl)-6-(2-methyl-2H-1,2,3-triazol-4-yl)-4,4a,5,6,8,8a-hexahydropyrano[3,4-d][1,3]thiazin-2-amine] | 7.38 | 6.33 | 
Cc1ncc([C@H]2C[C@H]3CSC(N)=N[C@@]3(c3ccc(F)cc3F)CO2)cn1 [Example 17, (4aR,6R,8aS)-8a-(2,4-difluorophenyl)-6-(2-methylpyrimidin-5-yl)-4,4a,5,6,8,8a-hexahydropyrano[3,4-d][1,3]thiazin-2-amine] | 7.22 | 5.85 | 
Cn1cc([C@H]2C[C@H]3CSC(N)=N[C@@]3(c3ccc(F)cc3F)CO2)nn1 [Example 18, (4aR,6R,8aS)-8a-(2,4-Difluorophenyl)-6-(1-methyl-1H-1,2,3-triazol-4-yl)-4,4a,5,6,8,8a-hexahydropyrano[3,4-d][1,3]thiazin-2-amine] | 7.60 | 6.06 | 
N#Cc1coc([C@H]2C[C@H]3CSC(N)=N[C@@]3(c3ccc(F)cc3F)CO2)n1 [Example 19, 2-[(4aR,6R,8aS)-2-Amino-8a-(2,4-difluorophenyl)-4,4a,5,6,8,8a-hexahydropyrano[3,4-d][1,3]thiazin-6-yl]-1,3-oxazole-4-carbonitrile] | 7.14 | 6.26 | 
CCOc1cc([C@H]2C[C@H]3CSC(N)=N[C@@]3(c3ccc(F)cc3F)CO2)nn1C [Example 21, (4aR,6R,8aS)-8a-(2,4-Difluorophenyl)-6-(5-ethoxy-1-methyl-1H-pyrazol-3-yl)-4,4a,5,6,8,8a-hexahydropyrano[3,4-d][1,3]thiazin-2-amine] | 6.91 | 5.27 | 
NC1=N[C@@]2(c3ccc(F)cc3F)CO[C@@H](c3nc4ccncc4o3)C[C@H]2CS1 [Example 23, (4aR,6R,8aS)-8a-(2,4-Difluorophenyl)-6-([1,3]oxazolo[5,4-c]pyridin-2-yl)-4,4a,5,6,8,8a-hexahydropyrano[3,4-d][1,3]thiazin-2-amine] | 7.39 | 5.30 | 
NC1=N[C@@]2(c3ccc(F)cc3F)CO[C@@H](c3cncnc3)C[C@H]2CS1 [Example 24, (4aR,6R,8aS)-8a-(2,4-Difluorophenyl)-6-(pyrimidin-5-yl)-4,4a,5,6,8,8a-hexahydropyrano[3,4-d][1,3]thiazin-2-amine] | 6.85 | 5.81 | 
(4aR,6R,8aS)-8a-(2,4-Difluorophenyl)-6-[1-(^2H3)methyl-1H-pyrazol-4-yl]-4,4a,5,6,8,8a-hexahydropyrano[3,4-d][1,3]thiazin-2-amine [Example 15] |  |  | 8.36

The next lines start with results.

pIC50 ([1]; Homo sapiens) | pIC50 [2] | Compound | pIC50 [1]
8.17 |  | Cc1ccc([C@H]2C[C@H]3CSC(N)=N[C@@]3(c3ccc(F)cc3F)CO2)cn1 (relative stereo) [Example 7, rel-(4aR,6R,8aS)-8a-(2,4-Difluorophenyl)-6-(6-methylpyridin-3-yl)-4,4a,5,6,8,8a-hexahydropyrano[3,4-d][1,3]thiazin-2-amine] | 
8.42 | 7.08 | Cn1nc([C@H]2C[C@H]3CSC(N)=N[C@@]3(c3ccc(F)cc3F)CO2)cc1F [Example 1, (4aR,6R,8aS)-8a-(2,4-difluorophenyl)-6-(5-fluoro-1-methyl-1H-pyrazol-3-yl)-4,4a,5,6,8,8a-hexahydropyrano[3,4-d][1,3]thiazin-2-amine] | 
7.74 | 6.63 | NC1=N[C@@]2(c3ccc(F)cc3F)CO[C@@H](c3ccc(F)cn3)C[C@H]2CS1 [Example 2, (4aR,6R,8aS)-8a-(2,4-Difluorophenyl)-6-(5-fluoropyridin-2-yl)-4,4a,5,6,8,8a-hexahydropyrano[3,4-d][1,3]thiazin-2-amine] | 
8.13 | 6.92 | Cn1cc([C@H]2C[C@H]3CSC(N)=N[C@@]3(c3ccc(F)cc3F)CO2)ccc1=O [Example 3, 5-[(4aR,6R,8aS)-2-Amino-8a-(2,4-difluorophenyl)-4,4a,5,6,8,8a-hexahydropyrano[3,4-d][1,3]thiazin-6-yl]-1-methylpyridin-2(1H)-one] | 
7.88 | 7.14 | NC1=N[C@@]2(c3ccc(F)cc3F)CO[C@@H](c3cnn(CC(F)(F)F)c3)C[C@H]2CS1 [Example 5, (4aR,6R,8aS)-8a-(2,4-Difluorophenyl)-6-[1-(2,2,2-trifluoroethyl)-1H-pyrazol-4-yl]-4,4a,5,6,8,8a-hexahydropyrano[3,4-d][1,3]thiazin-2-amine] | 
7.67 | 6.62 | NC1=N[C@@]2(c3ccc(F)cc3F)CO[C@@H](c3nc4cnccc4o3)C[C@H]2CS1 [Example 10, (4aR,6R,8aS)-8a-(2,4-difluorophenyl)-6-([1,3]oxazolo[4,5-c]pyridin-2-yl)-4,4a,5,6,8,8a-hexahydropyrano[3,4-d][1,3]thiazin-2-amine] | 
7.88 | 7.26 | Cc1cc([C@H]2C[C@H]3[C@@H](CF)SC(N)=N[C@@]3(c3ccc(F)cc3F)CO2)on1 [Example 13, (4S,4aR,6R,8aS)-8a-(2,4-Difluorophenyl)-4-(fluoromethyl)-6-(3-methyl-1,2-oxazol-5-yl)-4,4a,5,6,8,8a-hexahydropyrano[3,4-d][1,3]thiazin-2-amine] | 
7.68 | 6.64 | NC1=N[C@@]2(c3ccc(F)cc3F)CO[C@@H](c3nc(C(F)F)co3)C[C@H]2CS1 [Example 14, (4aR,6R,8aS)-6-[4-(Difluoromethyl)-1,3-oxazol-2-yl]-8a-(2,4-difluorophenyl)-4,4a,5,6,8,8a-hexahydropyrano[3,4-d][1,3]thiazin-2-amine] | 
8.55 | 7.61 | C[C@H]1SC(N)=N[C@@]2(c3ccc(F)cc3F)CO[C@@H](c3cnn(C)c3)C[C@@H]12 [Example 16, (4R,4aR,6R,8aS)-8a-(2,4-Difluorophenyl)-4-methyl-6-(1-methyl-1H-pyrazol-4-yl)-4,4a,5,6,8,8a-hexahydropyrano[3,4-d][1,3]thiazin-2-amine] | 
7.69 | 6.41 | Cc1cnc([C@H]2C[C@H]3CSC(N)=N[C@@]3(c3ccc(F)cc3F)CO2)cn1 [Example 20, (4aR,6R,8aS)-8a-(2,4-Difluorophenyl)-6-(5-methylpyrazin-2-yl)-4,4a,5,6,8,8a-hexahydropyrano[3,4-d][1,3]thiazin-2-amine] | 
8.20 |  | Cn1cc([C@H]2C[C@H]3[C@@H](CF)SC(N)=N[C@@]3(c3ccc(F)cc3F)CO2)cn1 [Example 22, (4S,4aR,6R,8aS)-8a-(2,4-Difluorophenyl)-4-(fluoromethyl)-6-(1-methyl-1H-pyrazol-4-yl)-4,4a,5,6,8,8a-hexahydropyrano[3,4-d][1,3]thiazin-2-amine] | 
8.57 |  | NC1=N[C@@]2(c3ccc(F)cc3F)CO[C@@H](c3cncc(F)c3)C[C@H]2CS1 [Example 29, (4aR,6R,8aS)-8a-(2,4-difluorophenyl)-6-(5-fluoropyridin-3-yl)-4,4a,5,6,8,8a-hexahydropyrano[3,4-d][1,3]thiazin-2-amine] | 
